From US20260152501A1, “CYCLIN MODULATOR” (EUBULUS BIOTHERAPEUTICS (HONG KONG) LIMITED, priority 2022, published 2026)
Like-named read-outs stand apart in the source and are kept apart here.

How the values were obtained:
Format in all cases: cell-based
Colo-205 cells = assay: Cell proliferation experiment, Colo-205 cells; details: Cell Titer-Glo, read-out: Cell antiproliferation data Colo-205
Procedure: (§1) Reagents: RPMI-1640 medium, McCoy's 5A medium, IMDM medium, MEM medium, L-15 medium, fetal bovine serum, Penicillin-Streptomycin double antibody, trypsin, etc., 2-mercaptoethanol, NEAA, pyruvate, etc.
(§2) The test cells were cultured in conventional ways, and the cells should be passed for at least 2 generations before plating.
(§3) 25 μL of 1000 HT-29, N87, SKOV3, Colo-205 and MDA-MB-231 cells were inoculated in a 384-well plate with black wall and transparent bottom, 25 μL of different concentrations of compounds were added, and the cells were cultured overnight under condition of 37° C. and 5% CO2.
(§4) 25 μL of 1500 H82 and H69 cells were inoculated in a 384-well plate with black wall and transparent bottom, 25 μL of different concentrations of compounds were added, and the cells were cultured for 72 hours under condition of 37° C. and 5% CO2. The 384-well plate was equilibrated at room temperature, 25 μL of Cell Titer-Glo® reagent was added to each well, and the cells were lysed by shaking on a horizontal shaking shaker for 2 minutes, incubated at room temperature for 10 minutes to stabilize the luminescent signal, and then the chemiluminescent signal was detected using Envision.
(§5) All cells were subjected to IC50 test for corresponding samples.
(§6) The fluorescence intensity of each well was detected using the Alarm blue method, and EC50 was calculated.
(§7) IC50 was calculated according to the following formula:
(§8) [formula] • wherein, Min, Max and Slope represent the minimum, maximum and slope respectively.

N87 cells = assay: Cell proliferation experiment, N87 cells; details: Cell Titer-Glo, read-out: Cell antiproliferation data N87
Procedure: as §1, §2, §3, §4, §5, §6, §7, §8

MDA-MB-231 cells = assay: Cell proliferation experiment, MDA-MB-231 cells; details: Cell Titer-Glo, read-out: Cell antiproliferation data MDA-MB-231
Procedure: as §1, §2, §3, §4, §5, §6, §7, §8

H69 cells = assay: Cell proliferation experiment, H69 cells; details: cultured for 72 hours, Cell Titer-Glo, read-out: Cell antiproliferation data H69
Procedure: as §1, §2, §4
(§9) All cells were subjected to IC50 test for corresponding samples. […]
as §7, §8

SKOV3 cells = assay: Cell proliferation experiment, SKOV3 cells; details: Cell Titer-Glo, read-out: Cell antiproliferation data SKOV3
Procedure: as §1, §2, §3, §4, §5, §6, §7, §8

H82 cells = assay: Cell proliferation experiment, H82 cells; details: Homo sapiens, NCI-H82, cultured for 72 hours, Cell Titer-Glo, read-out: Cell antiproliferation data H82
Procedure: as §1, §2, §4, §9, §7, §8

HT-29 cells = assay: Cell proliferation experiment, HT-29 cells; details: Cell Titer-Glo, read-out: Cell antiproliferation data HT-29
Procedure: as §1, §2, §3, §4, §5, §6, §7, §8

[1] = Homo sapiens, COLO 205, Colo-205 cells
[2] = Homo sapiens, SK-OV-3, SKOV3 cells

`CC(C)n1cnc2c(NCc3ccc(-c4ccccc4)cc3)nc(N[C@@H]3CCCNC3)nc21` [UB-014, (R)-N6-([1,1′-biphenyl]-4-ylmethyl)-9-isopropyl-N2-(Piperidin-3-yl)-9H-purin-2,6-diamine] gave an IC50 (Colo-205 cells; [1]) of at most 100 nM, an IC50 (N87 cells) of at most 100 nM and an IC50 (MDA-MB-231 cells; Homo sapiens) of at most 100 nM. For the same compound, the IC50 (H69 cells; Homo sapiens, NCI-H69, 72 h) was 100 to 300 nM, the IC50 (SKOV3 cells; [2]) was 100 to 300 nM and the IC50 (H82 cells) was at most 100 nM. It also gave an IC50 (HT-29 cells; Homo sapiens) of at most 100 nM.

`CCn1cnc2c(NCc3ccc(-c4cccc(CO)c4)cc3)nc(N3CCNCC3)nc21` [UB-004] gave an IC50 (Colo-205 cells; [1]) of 100 to 300 nM, an IC50 (MDA-MB-231 cells; Homo sapiens) of at most 100 nM and an IC50 (H69 cells) of over 300 nM. For the same compound, the IC50 (SKOV3 cells; [2]) was 100 to 300 nM and the IC50 (HT-29 cells; Homo sapiens) was at most 100 nM.

Compound `CCn1cnc2c(NCc3ccc(-c4ccccn4)cc3)nc(N[C@H]3CC[C@H](O)CC3)nc21` [UB-006] has an IC50 (Colo-205 cells; [1]) of at most 100 nM, an IC50 (MDA-MB-231 cells; Homo sapiens) of at most 100 nM and an IC50 (H69 cells; Homo sapiens, NCI-H69, 72 h) of over 300 nM. For the same compound, the IC50 (SKOV3 cells; [2]) was at most 100 nM and the IC50 (HT-29 cells; Homo sapiens) was at most 100 nM.

`CC(C)n1cnc2c(NCc3ccc(-c4ccccc4)cc3)nc(N3CCC(N)CC3)nc21` [UB-017, N-([1,1′-biphenyl]-4-ylmethyl)-2-(4-amino-piperidin-1-yl)-9-isopropyl-9H-purin-6-amine] gave an IC50 (Colo-205 cells; [1]) of 100 to 300 nM, an IC50 (N87 cells) of at most 100 nM and an IC50 (MDA-MB-231 cells; Homo sapiens) of at most 100 nM. For the same compound, the IC50 (H69 cells; Homo sapiens, NCI-H69, 72 h) was 100 to 300 nM, the IC50 (SKOV3 cells; [2]) was 100 to 300 nM and the IC50 (H82 cells) was 100 to 300 nM. For the same compound, the IC50 (HT-29 cells; Homo sapiens) was at most 100 nM.

`CC(C)n1cnc2c(NCc3ccc(-c4ccccc4)cc3)nc(N3CCC[C@@H](N)C3)nc21` [UB-013, (R)-N-([1,1′-biphenyl]-4-ylmethyl)-2-(3-aminopiperidin-1-yl)-9-isopropyl-9H-purin-6-amine] gave an IC50 (Colo-205 cells; [1]) of at most 100 nM, an IC50 (N87 cells) of at most 100 nM and an IC50 (MDA-MB-231 cells; Homo sapiens) of at most 100 nM. For the same compound, the IC50 (H69 cells; Homo sapiens, NCI-H69, 72 h) was 100 to 300 nM, the IC50 (SKOV3 cells; [2]) was 100 to 300 nM and the IC50 (H82 cells) was at most 100 nM. The IC50 (HT-29 cells; Homo sapiens) was at most 100 nM.

Work on `CC(C)n1cnc2c(NCc3ccc(-c4ccccc4)cc3)nc(N[C@H]3CCCNC3)nc21` [UB-015, (S)-N6-([1,1′-biphenyl]-4-ylmethyl)-9-isopropyl-N2-(Piperidin-3-yl)-9H-purin-2,6-diamine] yielded an IC50 (Colo-205 cells; [1]) of at most 100 nM, an IC50 (N87 cells) of at most 100 nM and an IC50 (MDA-MB-231 cells; Homo sapiens) of at most 100 nM. For the same compound, the IC50 (H69 cells; Homo sapiens, NCI-H69, 72 h) was 100 to 300 nM, the IC50 (SKOV3 cells; [2]) was 100 to 300 nM and the IC50 (H82 cells) was at most 100 nM. The IC50 (HT-29 cells; Homo sapiens) was at most 100 nM.

In the case of `CC[C@H](CO)Nc1nc(NCc2ccc(-c3ccccc3)cc2)c2ncn(C(C)C)c2n1` [UB-007, (R)-2-((6-(([1,1′-biphenyl]-4-ylmethyl)amino)-9-isopropyl-9H-purin-2-yl)amino)butan-1-ol], the IC50 (Colo-205 cells; [1]) is reported as over 300 nM, the IC50 (N87 cells) is reported as 100 to 300 nM and the IC50 (MDA-MB-231 cells; Homo sapiens) is reported as over 300 nM. It also gave an IC50 (H69 cells; Homo sapiens, NCI-H69, 72 h) of over 300 nM, an IC50 (SKOV3 cells; [2]) of over 300 nM and an IC50 (H82 cells) of 100 to 300 nM. For the same compound, the IC50 (HT-29 cells; Homo sapiens) was 100 to 300 nM.

For `CCn1cnc2c(NCc3ccc(-c4cccc(CO)n4)cc3)nc(N3CCN(C)CC3)nc21` [UB-003], the IC50 (Colo-205 cells; [1]) was at most 100 nM, the IC50 (MDA-MB-231 cells; Homo sapiens) was at most 100 nM and the IC50 (H69 cells; Homo sapiens, NCI-H69, 72 h) was 100 to 300 nM. For the same compound, the IC50 (HT-29 cells; Homo sapiens) was at most 100 nM.

`CC(C)n1cnc2c(NCc3ccc(-c4ccccc4)cc3)nc(N3CCOCC3)nc21` [UB-009, N-([1,1′-biphenyl]-4-ylmethyl)-9-isopropyl-2-morpholino-9H-purin-6-amine] showed an IC50 (Colo-205 cells; [1]) of over 300 nM, an IC50 (N87 cells) of over 300 nM and an IC50 (MDA-MB-231 cells; Homo sapiens) of over 300 nM. For the same compound, the IC50 (H69 cells; Homo sapiens, NCI-H69, 72 h) was over 300 nM, the IC50 (SKOV3 cells; [2]) was over 300 nM and the IC50 (H82 cells) was over 300 nM. For the same compound, the IC50 (HT-29 cells; Homo sapiens) was over 300 nM.

Compound `CC(C)n1cnc2c(NCc3ccc(-c4ccccc4)cc3)nc(N3CCN(C)CC3)nc21` [UB-011, N-([1,l′-biphenyl]-4-ylmethyl)-9-isopropyl-2-(4-methylpiperazin-1-yl)-9H-purin-6-amine] has an IC50 (Colo-205 cells; [1]) of over 300 nM, an IC50 (N87 cells) of 100 to 300 nM and an IC50 (MDA-MB-231 cells; Homo sapiens) of 100 to 300 nM. For the same compound, the IC50 (H69 cells; Homo sapiens, NCI-H69, 72 h) was over 300 nM, the IC50 (SKOV3 cells; [2]) was over 300 nM and the IC50 (H82 cells) was 100 to 300 nM. For the same compound, the IC50 (HT-29 cells; Homo sapiens) was 100 to 300 nM.

`CC(C)n1cnc2c(NCc3ccc(-c4ccccc4)cc3)nc(N3CCC[C@H](N)C3)nc21` [UB-012, (S)-N-([1,1′-biphenyl]-4-ylmethyl)-2-(3-aminopiperidin-1-yl)-9-isopropyl-9H-purin-6-amine] was tested, and the IC50 (Colo-205 cells; [1]) was at most 100 nM, the IC50 (N87 cells) was at most 100 nM and the IC50 (MDA-MB-231 cells; Homo sapiens) was at most 100 nM. The IC50 (H69 cells; Homo sapiens, NCI-H69, 72 h) was 100 to 300 nM, the IC50 (SKOV3 cells; [2]) was 100 to 300 nM and the IC50 (H82 cells) was at most 100 nM. The IC50 (HT-29 cells; Homo sapiens) was at most 100 nM.

`CCn1cnc2c(NCc3ccc(-c4cccc(CO)n4)cc3)nc(N3CCNCC3)nc21` [UB-002] showed an IC50 (Colo-205 cells; [1]) of at most 100 nM, an IC50 (N87 cells) of at most 100 nM and an IC50 (MDA-MB-231 cells; Homo sapiens) of at most 100 nM. It also gave an IC50 (H69 cells; Homo sapiens, NCI-H69, 72 h) of at most 100 nM, an IC50 (H82 cells) of 100 to 300 nM and an IC50 (HT-29 cells; Homo sapiens) of at most 100 nM.

Work on `CC(C)n1cnc2c(NCc3ccc(-c4ccccc4)cc3)nc(N3CCCCC3)nc21` [UB-008, N-([1,1′-biphenyl]-4-ylmethyl)-9-isopropyl-2-(Piperidin-1-yl)-9H-purin-6-amine] yielded an IC50 (Colo-205 cells; [1]) of over 300 nM, an IC50 (N87 cells) of over 300 nM and an IC50 (MDA-MB-231 cells; Homo sapiens) of over 300 nM. For the same compound, the IC50 (H69 cells; Homo sapiens, NCI-H69, 72 h) was over 300 nM, the IC50 (SKOV3 cells; [2]) was over 300 nM and the IC50 (H82 cells) was over 300 nM. It also gave an IC50 (HT-29 cells; Homo sapiens) of over 300 nM.

For `CCn1cnc2c(NCc3ccc(-c4cccc(CO)c4)cc3)nc(N3CCNCC3)nc21` [UB-005], the IC50 (Colo-205 cells; Colo-205 cells) was at most 100 nM, the IC50 (N87 cells) was at most 100 nM and the IC50 (MDA-MB-231 cells) was at most 100 nM. For the same compound, the IC50 (H69 cells) was at most 100 nM, the IC50 (SKOV3 cells; SKOV3 cells) was at most 100 nM and the IC50 (H82 cells) was at most 100 nM. It also gave an IC50 (HT-29 cells) of at most 100 nM.

`CCn1cnc2c(NCc3ccc(-c4cccc(CO)n4)cc3)nc(N3CCOCC3)nc21` [UB-001] gave an IC50 (Colo-205 cells; [1]) of 100 to 300 nM, an IC50 (N87 cells) of at most 100 nM and an IC50 (MDA-MB-231 cells; Homo sapiens) of at most 100 nM. The IC50 (H69 cells; Homo sapiens, NCI-H69, 72 h) was at most 100 nM, the IC50 (H82 cells) was 100 to 300 nM and the IC50 (HT-29 cells; Homo sapiens) was at most 100 nM.

Work on `CC(C)n1cnc2c(NCc3ccc(-c4ccccc4)cc3)nc(N3CCNCC3)nc21` [UB-010, N-([1,1′-biphenyl]-4-ylmethyl)-9-isopropyl-2-(piperazin-1-yl)-9H-purin-6-amine] yielded an IC50 (Colo-205 cells; [1]) of at most 100 nM, an IC50 (N87 cells) of at most 100 nM and an IC50 (MDA-MB-231 cells; Homo sapiens) of at most 100 nM. The IC50 (H69 cells; Homo sapiens, NCI-H69, 72 h) was 100 to 300 nM, the IC50 (SKOV3 cells; [2]) was at most 100 nM and the IC50 (H82 cells) was at most 100 nM. The IC50 (HT-29 cells; Homo sapiens) was at most 100 nM.
